Assay results as given in patent US9790253B2, “OSW-1 analogs and conjugates, and uses thereof” (priority 2011, dated 2017).
“Also recorded” adds a separate entry of the source. Where two headings read alike, the source gives them in different places. Where a SMILES comes first, the peptide text is derived from it. The star is where a group is joined. Cbz = O=C(OCc1ccccc1)*

Tests used:
[1] = biological target: T1, ORP4L-myc-his (Homo sapiens, UniProt Q969R2); assay: [3H]-25-hydroxycholesterol charcoal-dextran binding assay with ORP4L-myc-his
T1 sequence (Q969R2 1-916): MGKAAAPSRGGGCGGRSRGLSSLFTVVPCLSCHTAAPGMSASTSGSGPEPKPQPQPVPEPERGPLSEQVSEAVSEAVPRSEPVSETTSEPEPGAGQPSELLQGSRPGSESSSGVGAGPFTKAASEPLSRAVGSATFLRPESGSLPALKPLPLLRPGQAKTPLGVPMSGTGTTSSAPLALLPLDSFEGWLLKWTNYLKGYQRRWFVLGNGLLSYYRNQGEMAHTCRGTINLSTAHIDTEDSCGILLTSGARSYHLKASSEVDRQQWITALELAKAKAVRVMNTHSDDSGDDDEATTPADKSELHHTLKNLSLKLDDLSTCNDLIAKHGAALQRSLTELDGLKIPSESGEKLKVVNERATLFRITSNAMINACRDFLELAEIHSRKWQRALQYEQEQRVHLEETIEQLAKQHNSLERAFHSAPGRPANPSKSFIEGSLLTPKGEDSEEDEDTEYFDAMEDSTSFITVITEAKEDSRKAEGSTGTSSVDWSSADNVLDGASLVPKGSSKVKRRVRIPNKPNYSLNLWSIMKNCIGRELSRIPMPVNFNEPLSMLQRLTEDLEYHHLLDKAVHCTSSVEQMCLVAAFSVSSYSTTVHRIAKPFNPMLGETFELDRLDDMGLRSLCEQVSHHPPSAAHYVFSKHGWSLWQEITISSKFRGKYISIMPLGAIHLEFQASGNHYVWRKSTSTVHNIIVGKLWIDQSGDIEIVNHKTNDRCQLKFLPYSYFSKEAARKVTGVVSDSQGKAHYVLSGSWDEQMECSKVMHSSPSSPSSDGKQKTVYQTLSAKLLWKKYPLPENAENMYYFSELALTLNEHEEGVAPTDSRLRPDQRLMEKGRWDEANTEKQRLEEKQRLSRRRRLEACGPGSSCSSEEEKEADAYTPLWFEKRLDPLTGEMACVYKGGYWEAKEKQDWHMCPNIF
Procedure: [^3H]-25-Hydroxycholesterol charcoal-dextran binding assay. […] These vectors were transfected into HEK-293T cells using Lipofectamine™2000 (Invitrogen), and 48 h after transfection, on-plate lysis of the transfected cells with the M-Per®/HALT™ with EDTA (ThermoScientific) reagent was performed, followed by ultracentrifugation at 100,000 g. The S100 lysate was diluted to 0.2 mg/mL, aliquoted and stored at −80° C. until use. The HEK-293T OSBP1-, ORP4L- or lacZ-myc-his lysate was incubated with [^3H]-25-hydroxycholesterol at 4° C. for 16 h in 96-well plates. After incubation, charcoal/dextran (C/D) was added to the wells for 30 min of shaking at RT, followed by centrifugation for 15 min at 1900 g to pellet the C/D. The C/D-cleared lysate was added to MicroScint™-20 (PerkinElmer) scintillation fluid, and the remaining protein-bound radiolabel was quantified using a TopCount™ scintillation counter. [^3H]-25-hydroxycholesterol binding curves and competition curves were repeated at least three times.
Lysates were thawed on ice, with brief periods of hand warming. Both the ^3H-25-OHC direct binding assays and the ^3H-25-OHC competition binding assays were set up similarly, with a large stock of binding assay lysate being prepared, then 73.5 μL of the binding assay mixture dispensed using a multi-channel pipettor into “V”-shaped 96-well plates. For the ^3H-25-OHC direct binding assay, 1.5 μL of ^3H-25-OHC and ^3H-25-OHC/40×25-OHC added to the wells in dilutions in 100% ethanol. For the ^3H-25-OHC competition binding assays, ^3H-25-OHC was added to the large stock of binding assay lysate to a final concentration of 20 nM. This ^3H-25-OHC-containing binding lysate was then dispensed using a multi-channel pipettor into the 96-well plates. Then, 1.5 μL of a serial dilution of the inhibitors in either 100% ethanol (25-OHC) or DMSO (the ORPphilins) was added to each well.
The binding lysate used in each well of the 96-well plate consisted of 60 μL of 0.2 mg/mL S100 lysate, 7.5 μL 20% PVA, and 5.6 μL 2M KCl. For ^3H-25-OHC binding curve experiments, 0.4 μL of buffer was then added (total volume per well: 73.5 μL). For the ^3H-25-OHC inhibition competition assays, 0.11 μL of 13.2 μM ^3H-25-OHC and 0.29 μL binding buffer was added for each well (total volume per well: 73.5 μL).
Binding assays were incubated, standing, for 16 h at 4° C. Then 30 μL of the rt C/D solution was multichannel pipetted into new “V’ shaped 96-well plates, and 60 μL of the binding lysate mixture was then added. The plates were briefly, lightly vortexed (˜10 sec), 10 and then rocked at 250 rpm for 30 min at rt. The plates were then centrifuged at 1900 g for 15 min at 4° C. in Microplate Carriers (Sorvall cat. #75006449S) in a Sorvall Legend RT centrifuge. Carefully so as to not disturb the C/D pellet, 30 μL of the supernatant was transferred to 170 μL of Microscint-20 in the OptiPlates. The plates were sealed with the TopSealA-Films, and vigorously vortexed (max speed, >1 min). ^3H-25-OHC detection in the wells was then performed using a TopCount Scintillation detector, counting each well for 2 min. Data was graphed and analyzed using GraphPad PrismS, using non-linear regression to determine KD and K1 values.
Binding experiments were performed at 4° C. for 16 h. Unbound sterol was removed using dextran-coated charcoal, and protein-bound sterol left in the supernatant was quantified by scintillation counting. Ki-values were determined as mean±s.d. from at least three independent experiments.

[2] = system: HCT-116 p21^−/− cells; assay: cells; conditions: for GI50: Homo sapiens, HCT-116, 48 h, read-out: GI50 (nM) 48 h p21^−/−
Procedure: (§1) Cell viability assay. Cells were plated into 96-well plates in 75 μL of media. After 24 h, a time-zero plate was produced by adding 25 μL of media and 20 μL of CellTiter-Blue® (Promega) to the wells, followed by incubation at 37° C. for 90 min. Fluorescence (544 nm excitation; 590 nm emission) was detected using a SPECTRAmax® Gemini XS to establish cell viability at time of dosing. Then, compounds were serially diluted in media and delivered to the cells as 4× solutions in 25 μL of media. At either 48 h or 72 h, CellTiter-Blue® was added and the fluorescence was recorded as described above.
(§2) Tasdemir et al. (2002) J Nat Prod 65:210-4. GI50-values of the compounds were determined in HCT-116 p21^+/+ (wt) and p21^−/− cells after 48 h using a resazurin redox dye to measure cell viability.
(§3) Methods are described above in the General Methods section.

[3] = system: A549 cells; assay: cells; assay type: cell-based, human; conditions: for GI50: Homo sapiens, A549, 48 h, read-out: GI50 (nM) 48 h
Source text: Methods are essentially as described above in the General Methods section in connection with assays using HCT-116 cells.

[4] = biological target: T2, OSBP1-myc-his (Homo sapiens, UniProt P22059); assay: [3H]-25-hydroxycholesterol charcoal-dextran binding assay with OSBP1-myc-his
T2 construct: made in house; host or cells: HEK-293T (transient transfection; S100 lysate, not purified)
T2 sequence (P22059 1-807): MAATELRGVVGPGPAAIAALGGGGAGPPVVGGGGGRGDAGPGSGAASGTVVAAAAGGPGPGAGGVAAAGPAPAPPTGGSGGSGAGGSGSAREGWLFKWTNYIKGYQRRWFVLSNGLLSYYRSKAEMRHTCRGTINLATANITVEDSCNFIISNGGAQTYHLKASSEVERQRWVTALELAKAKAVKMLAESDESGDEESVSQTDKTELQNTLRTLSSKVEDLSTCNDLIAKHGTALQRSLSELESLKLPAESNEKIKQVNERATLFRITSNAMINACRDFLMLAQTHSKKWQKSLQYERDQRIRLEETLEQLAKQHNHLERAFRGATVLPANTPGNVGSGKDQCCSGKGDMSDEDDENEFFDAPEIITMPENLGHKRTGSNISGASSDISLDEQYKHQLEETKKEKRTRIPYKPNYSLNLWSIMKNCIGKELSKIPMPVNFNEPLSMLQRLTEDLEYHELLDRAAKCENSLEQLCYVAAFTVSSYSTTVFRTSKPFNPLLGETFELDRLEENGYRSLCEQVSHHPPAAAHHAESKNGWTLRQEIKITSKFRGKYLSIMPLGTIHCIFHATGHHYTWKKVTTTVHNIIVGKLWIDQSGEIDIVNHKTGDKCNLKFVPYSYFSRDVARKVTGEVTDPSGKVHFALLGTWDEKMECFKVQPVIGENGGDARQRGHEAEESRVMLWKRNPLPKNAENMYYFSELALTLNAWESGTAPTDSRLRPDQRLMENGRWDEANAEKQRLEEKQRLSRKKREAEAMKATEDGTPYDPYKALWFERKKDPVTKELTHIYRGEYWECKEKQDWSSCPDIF
Source text: [^3H]-25-Hydroxycholesterol charcoal-dextran binding assay.
as §3

[5] = system: HCT-116 p21^+/+ (wt) cells; assay: Growth inhibition (cell viability assay) of HCT-116 p21+/+ cells; conditions: for GI50: Homo sapiens
Procedure: as §1, §2, §3

[6] = biological target: T3, OSBP1 protein levels in HCT-116 cells (Homo sapiens, UniProt P22059); assay: OSBP1 protein levels by western blotting; assay type: cell-based; conditions: for block of OSBP1 degradation by 1 and 2: co-administered with 1 and 2; for effect on OSBP1 levels, compound alone: concentration not given
T3 construct: endogenous in cells; host or cells: HCT-116
T3 sequence (P22059 1-807): T2 sequence (P22059 1-807)
Procedure: A possible explanation for this observation was that treatment with 1 and 2 caused a decrease in OSBP1 levels. Treatment of HCT-116 cells with vehicle (DMSO) or 25-OHC (10 μM) had no effect on OSBP1 levels, as assessed by western blotting (FIG. 6A). However, treatment with 1 or 2 induced a dramatic, time-dependent reduction of OSBP1 levels (FIG. 6A). For example, 50 nM of 1 or 10 nM of 2 caused an approximately 75% reduction in OSBP1 protein levels at 24 h in HCT-116 cells (FIG. 6A), with a similar effect recorded in A549 cells. […] OSBP1 levels were determined using both an antibody recognizing the far N-terminus of OSBP1 (FIG. 6) and also an antibody recognizing the C-terminus of OSBP1.
One possible explanation for the reduction in OSBP1 levels upon treatment with 1 and 2 was proteasome-dependent degradation. To determine whether degradation of OSBP1 was proteasome dependent, proteasome inhibitors MG-132 or lactacystin were co-administered with 1 and 2. […] Similar results were obtained in A549 cells.

[7] = HCT-116, 48 h, read-out: GI50 (nM) 48 h p21^+/+
[8] = competition with 20 nM [3H]-25-OHC, HEK-293T S100 lysate, 4° C., 16 h

Compound: C=CCOC(=O)NCc1ccc(CNC(=O)OC2C(O)COC(OC3C(O)COC(O[C@H]4C[C@H]5[C@@H]6CC=C7C[C@@H](O)CC[C@]7(C)C6CC[C@]5(C)[C@@]4(O)[C@H](C)C(=O)CCC(C)C)C3OC(C)=O)C2OC(=O)c2ccc(OC)cc2)cc1 (some centres unmarked) [Compound 6a]
- Ki [1]: 43 ± 9 nM
- p21−/− selectivity of growth inhibition (HCT-116 p21−/− versus wt) ([2]; 48 h): commensurate with that of 2
- GI50 [2]: 0.08 ± 0.02 nM
- GI50 [3]: 0.1 ± 0.04 nM
- Ki [4]: 18 ± 5 nM
- antiproliferative potency relative to 2 [5]: maintained the antiproliferative potency of 2
- GI50 [5, 7]: 0.6 ± 0.13 nM

Compound: C=CCOC(=O)NCc1ccc(CNC(=O)OC2COC(OC3C(O)COC(O[C@H]4C[C@H]5[C@@H]6CC=C7C[C@@H](O)CC[C@]7(C)C6CC[C@]5(C)[C@@]4(O)[C@H](C)C(=O)CCC(C)C)C3OC(C)=O)C(OC(=O)c3ccc(OC)cc3)C2O)cc1 (some centres unmarked) [Compound 6c]
- Ki [1]: 150 ± 50 nM
- GI50 [2]: 2.2 ± 0.5 nM
- GI50 [3]: 2.9 ± 0.9 nM
- Ki [4]: 46 ± 11 nM
- GI50 [5, 7]: 17 ± 4 nM

Compound: CC(=O)OC1C(O[C@H]2C[C@H]3[C@@H]4CC=C5C[C@@H](O)CC[C@]5(C)C4CC[C@]3(C)[C@@]2(O)[C@H](C)C(=O)CCC(C)C)OCC(O)C1OC1OCC(O)C(O)C1O (some centres unmarked) [Compound 7]
- Ki [1]: 120 ± 31 nM
- GI50 [2]: 17 ± 2 nM
- GI50 [3]: 41 ± 25 nM
- Ki [4]: 63 ± 12 nM
- GI50 [5, 7]: 120 ± 40 nM

Compound: CC(C)CCC(=O)[C@@H](C)[C@@]1(O)[C@@H](OC2OCC(O)C(OC3OCC(O)C(O)C3O)C2O)C[C@H]2[C@@H]3CC=C4C[C@@H](O)CC[C@]4(C)C3CC[C@@]21C (some centres unmarked) [Compound 8]
- Ki [1]: 760 ± 200 nM
- GI50 [2]: 220 ± 60 nM
- GI50 [3]: 570 ± 250 nM
- Ki [4]: 170 ± 7 nM
- GI50 [5, 7]: 1400 ± 400 nM

Compound: C=CCOC(=O)NCc1ccc(CNC(=O)O[C@H]2CC[C@@]3(C)C(=CC[C@@H]4C3CC[C@@]3(C)[C@H]4C[C@H](OC4OCC(O)C(OC5OCC(O)C(O)C5O)C4O)[C@]3(O)[C@H](C)C(=O)CCC(C)C)C2)cc1 (some centres unmarked) [Compound 20]
- GI50 [2]: 550 ± 300 nM
- GI50 [5, 7]: 6500 ± 3600 nM

Compound: COc1ccc(C(=O)OC2C(OC3C(O)COC(O[C@H]4C[C@H]5[C@@H]6CC=C7C[C@@H](OC(=O)NCCCCCCNC(=O)OCC8c9ccccc9-c9ccccc98)CC[C@]7(C)C6CC[C@]5(C)[C@@]4(O)[C@H](C)C(=O)CCC(C)C)C3OC(C)=O)OCC(O)C2O)cc1 (some centres unmarked) [Compound 102]
- GI50 [2]: 97 nM
- GI50 [5, 7]: 85 nM

Compound: C=CCOC(=O)NCCCCCCNC(=O)O[C@H]1CC[C@@]2(C)C(=CC[C@@H]3C2CC[C@@]2(C)[C@H]3C[C@H](OC3OCC(O)C(OC4OCC(O)C(O)C4OC(=O)c4ccc(OC)cc4)C3OC(C)=O)[C@]2(O)[C@H](C)C(=O)CCC(C)C)C1 (some centres unmarked) [Compound 103]
- GI50 [2]: 138 ± 16 nM
- GI50 [5, 7]: 172 ± 2 nM

Compound: C=CCOC(=O)NCCCCCCNC(=O)O[C@H]1CC[C@@]2(C)C(=CC[C@@H]3C2CC[C@@]2(C)[C@H]3C[C@H](OC3OCC(O)C(OC4OCC(O)C(O)C4O)C3O)[C@]2(O)[C@H](C)C(=O)CCC(C)C)C1 (some centres unmarked) [Compound 104]
- GI50 [2]: 525 ± 4 nM
- GI50 [5, 7]: > 2700 nM

Compound: C=CCOC(=O)NCc1ccc(CNC(=O)O[C@H]2CC[C@@]3(C)C(=CC[C@@H]4C3CC[C@@]3(C)[C@H]4C[C@H](OC4OCC(O)C(OC5OCC(O)C(O)C5OC(=O)c5ccc(OC)cc5)C4OC(C)=O)[C@]3(O)[C@H](C)C(=O)CCC(C)C)C2)cc1 (some centres unmarked) [Compound 106]
- GI50 [2]: 5 ± 3 nM
- GI50 [5, 7]: 91 ± 10 nM

Compound: COc1ccc(C(=O)OC2C(OC3C(O)COC(O[C@H]4C[C@H]5[C@@H]6CC=C7C[C@@H](O[Si](C)(C)C(C)(C)C)CC[C@]7(C)C6CC[C@]5(C)[C@@]4(O)[C@H](C)C(=O)CCC(C)C)C3OC(C)=O)OCC(O)C2O)cc1 (some centres unmarked) [Compound 108, 3-(tert-Butyldimethylsilyl)-OSW-1]
- [^3H]-25-OHC K1 (nM) ORP4L-myc-his [1, 8]: None detected
- competition with [3H]-25-OHC for binding to ORP4L ([1]; listed as 9): did not compete; also recorded: does not bind
- fold less cytotoxic than 2 in HCT-116 p21−/− cells [2]: 2100 fold
- GI50 [2]: 720 ± 90 nM
- fold less cytotoxic than 2 in A549 cells [3]: 700 fold
- GI50 [3]: 1600 ± 500 nM
- [^3H]-25-OHC K1 (nM) OSBP1-myc-his [4, 8]: None detected
- competition with [3H]-25-OHC for binding to OSBP1 ([4]; listed as 9): did not compete; also recorded: does not bind
- fold less active than OSW-1 (2) in HCT-116 cells [5]: ca. 1,400 fold
- GI50 [5, 7]: 2300 ± 200 nM
- GI50 ([5]; HCT-116, read-out: GI50 in HCT-116 cells): 2300 nM

Compound: CC(C)C[C@@H](C=O)NC(=O)[C@H](CC(C)C)NC(=O)[C@H](CC(C)C)NC(=O)OCc1ccccc1 [MG-132] (Cbz-Leu-Leu-Leu-aldehyde)
- block of OSBP1 degradation by 1 and 2 [6]: completely blocked
- effect on OSBP1 levels, compound alone [6]: did not affect

Compound: CC(=O)N[C@@H](CSC(=O)[C@]1([C@@H](O)C(C)C)NC(=O)[C@H](C)[C@@H]1O)C(=O)O [lactacystin]
- block of OSBP1 degradation by 1 and 2 [6]: completely blocked
- effect on OSBP1 levels, compound alone [6]: did not affect
